Structures can show the parent of a compound that is named as a salt.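 These data come from cells grown in 96-well plates and exposed to compound for 48 hours at five concentrations. GI50 marks 50% less growth.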 Activity calls are given as the source filed them. Rule as the data show it: active = GI50 up to about 1.1 µM and inactive = higher. Where a SMILES comes first, the peptide text is derived from it. [ ]: non-standard residue; d: D form. The star is where a group is joined. ξ: configuration not given here. ξD = NC(CC(=O)O)C(=O)O; Boc = CC(C)(C)OC(=O)*; Aib = CC(C)(N)C(=O)O; OBn = c1ccc(CO*)cc1 Some results are limits rather than exact numbers.

Holding throughout (test): DTP human tumour cell line panel, 48 h
The subject of experiment [1] is A549.
Experiment [2] concerns BT-549.
The subject of experiment [3] is DU-145.
The subject of experiment [4] is SNB-19.
Experiment [5] has as its system MDA-MB-231.
In experiment [6] the test system is MDA-MB-435.
Experiment [7] deals with KM12.
Experiment [8] has as its system SF-539.
Experiment [9] deals with PC-3.
Experiment [10] has as its system RPMI-8226.
Experiment [11] deals with SK-OV-3.
Experiment [12] concerns SK-MEL-5.
For experiment [13], the system named is HOP-62.
The test system of experiment [14] is NCI-H460.
In experiment [15] the test system is SF-268.
The test system of experiment [16] is CCRF-CEM.
Experiment [17] relates to EKVX.
Experiment [18] deals with A498.
In experiment [19] the test system is ACHN.
The test system of experiment [20] is LOX IMVI.

As usually defined, the GI50 is the concentration at which growth is held to half of that of the control. Regarding `COC(=O)[C@@H]1O[C@]12C(CO[Si](C)(C)C(C)(C)C)OC(n1ccc(=O)[nH]c1=O)C2O[Si](C)(C)C(C)(C)C` (stereo not given in full), the GI50 is 32.7 µM (inactive) in experiment [1]; 17.5 µM (inactive) in experiment [2]; 25.2 µM (inactive) in experiment [3]; 22.9 µM (inactive) in [4]; 28.2 µM (inactive) in experiment [5]; 23.6 µM (inactive) in experiment [6]. Besides, the GI50 in [7] is 31.7 µM (inactive); in experiment [8], 19.7 µM (inactive); in experiment [9], 20.9 µM (inactive); in experiment [10], 8.85 µM (inactive); in [11], 50.8 µM (inactive); in experiment [12], 19.6 µM (inactive). Besides, the GI50 is 24 µM (inactive) in [13]; 15.5 µM (inactive) in [14]; 30.4 µM (inactive) in [15]; > 100 µM (inactive) in experiment [16]; 25.9 µM (inactive) in [17]; > 10 µM (inactive) in experiment [18]. Besides, the figures for the GI50 in [19] and in experiment [20] were 22 µM (inactive) and 14.8 µM (inactive), respectively.

With `CC(C)(C)OC(=O)NC(CC(=O)OCc1ccccc1)C(=O)NC(C)(C)C(N)=O` (stereo not given) (Boc-[ξD](OBn)-[Aib]-NH2), the GI50 in [1], in experiment [2], in experiment [3], in [4], in experiment [5] and in experiment [6] was > 100 µM (inactive) in each case. Further, the GI50 in experiment [7], in experiment [8], in experiment [9], in experiment [10], in [11] and in experiment [12] was > 100 µM (inactive) each time. The GI50 in [13], in experiment [14], in [15], in experiment [16], in experiment [17] and in experiment [18] was > 100 µM (inactive) throughout. Moreover, the GI50 in [19] and in [20] was > 100 µM (inactive) throughout.

On to `O=C1c2cccc3cccc(c23)C(=O)N1CCCNCCCCNCCCNCCCN1C(=O)c2cccc3cccc(c23)C1=O` [BISNAPHTHALIMIDOPROPYL SPERMIDINE TRIHYDROBROMIDE], for which the GI50 in experiment [1] was 0.301 µM (active); in [2], 1.64 µM (inactive); in [3], 0.371 µM (active); in [4], 0.403 µM (active); in experiment [5], 1.06 µM (active); in experiment [6] it was 0.74 µM (active). For the same molecule, the concentration for 50% growth inhibition (GI50) is 0.556 µM (active) in [7]; 0.585 µM (active) in experiment [8]; 0.535 µM (active) in [9]; 0.355 µM (active) in experiment [10]; 1.5 µM (inactive) in [11]; 2.02 µM (inactive) in experiment [12]. Further, the concentration for 50% growth inhibition (GI50) in experiment [13] was 1.1 µM (active); in [14] it was 0.323 µM (active); in experiment [15], 0.282 µM (active); in [16] it was 0.111 µM (active); in experiment [17], 1.18 µM (inactive); in experiment [18] it was 0.977 µM (active). In addition, the GI50 is 1.22 µM (inactive) in experiment [19] and 0.316 µM (active) in experiment [20].

`Cc1cc(N)c2ccccc2[n+]1CCCCCCCCCC[n+]1c(C)cc(N)c2ccccc21` [DEQUALINIUM CHLORIDE]: the GI50 was 0.887 µM (active) in experiment [1]; 1 µM (active) in experiment [2]; 2.74 µM (inactive) in [3]; 0.783 µM (active) in [4]; 1.82 µM (inactive) in [5]; 0.541 µM (active) in experiment [6]. Moreover, the concentration for 50% growth inhibition (GI50) was 0.69 µM (active) in experiment [7]; 1.83 µM (inactive) in [8]; 1.07 µM (active) in experiment [9]; 0.375 µM (active) in experiment [10]; 2.39 µM (inactive) in [11]; 0.528 µM (active) in experiment [12]. Further, the GI50 was 1.87 µM (inactive) in [13]; 0.54 µM (active) in [14]; 1.39 µM (inactive) in experiment [15]; 2.11 µM (inactive) in [16]; 1.82 µM (inactive) in experiment [17]; 5.19 µM (inactive) in experiment [18]. Moreover, the GI50 in experiment [19] and in [20] was 1.11 µM (active) each time.

(Values after ChEMBL document CHEMBL1201862, “PubChem BioAssay data set” (2004).)
